Results on 9 compounds are retold here after patent publication US11634425B2, “Pharmaceutical compounds” (priority 2019, dated 2023).

A short description of one data set: Cell cytotoxicity (CC50). The class given is cell-based. To be noted: human; mean of at least two experiments. From the text:
(§1) Compounds were subjected to RSV plaque reduction assays according to the following protocol. Plaque EC50 and cell toxicity CC50 values are a mean of at least two experiments and figures are rounded to whole units.
(§2) Plates were scanned and analysed using the Immunospot S6 Macro analyser, which is equipped with BioSpot analysis software for counting immunostained plaques (virospots). Plaque counts were used to calculate % c infection relative to the mean of the plaque count in the virus control wells for RSV. The EC50 value was calculated as 50% reduction in signal, respectively, by interpolation of inhibition curves fitted with a 4-parameter nonlinear regression with a variable slope in Dotmatics. Plaque EC50 and cell toxicity CC50 values are a mean of at least two experiments and figures are rounded to whole units.

For a further data set, the system named is RSV A2. As to the kind of experiment: RSV plaque reduction assay. To be noted: human respiratory syncytial virus, HepG2, Hep-G2 cells, mean of at least two experiments. The class given is cell-based, respiratory syncytial virus (RSV). Here is the method: as §1
Hep-G2 cells (ECACC, 85011430) were passaged in flasks and seeded in 24-well plates in DMEM containing antibiotics and supplemented with 10% FBS. During inoculation and subsequent incubation, cells were cultured in DMEM containing 2% FBS. 100 plaque forming unit/well of RSV (RSV A2 ECACC, 0709161v) was mixed with eight serial dilutions of compound. Subsequently, 100 μL of the virus/compound mixtures was added to confluent Hep-G2 cell monolayers. The cells and virus/compound mixtures were incubated at 37° C. in a humidified 5% CO2 incubator for 2 h prior to removal of the inoculum and addition of 1 mL of overlay (DMEM containing 2% FBS and 0.8% CMC) containing compound dilutions. The cells and were incubated at 37° C. in a humidified 5% CO2 incubator for 2 days.
Cells were washed with PBS before adding 75/25% […] EtOH/MeOH, for 3 min. Fixative was removed and plates were washed with PBS. A pre-titrated amount of the primary antibody was added in 200 μL PBS/2% milk powder, and plates incubated for 90 min at 37° C. The plates were washed 3 times with PBS/0.05% Tween20 before addition of rabbit anti-goat horse radish peroxidase in 200 μL PBS/2% milk powder, and incubated for 1 h at 37° C. Following three wash steps with PBS/0.05% Tween20, 200 μL ready-to-use TrueBlue was added and plates were incubated at rt for 10-15 min before washing with water. After removal of water, plates were air-dried in the dark.
as §2
On the technique in general: In a plaque reduction assay, fewer plaques than in the control indicate reduced infectivity or spread.

In general, CC50 refers to the concentration at which the toxic effect on the cells reaches its halfway point. Higher therefore signals lower toxicity to the cells. By EC50 is commonly meant the concentration giving half of the maximal effect. Higher therefore signals weaker potency.

`CCc1ccc(-c2nc3ccc(OC)nn3c2C(=O)N[C@H]2N=C(c3ccccc3)c3cccc(F)c3NC2=O)cn1` [Example 121, 2-(6-Ethylpyridin-3-yl)-6-methoxy-N-[(3S)-9-fluoro-2-oxo-5-phenyl-1,3-dihydro-1,4-benzodiazepin-3-yl]imidazo[1,2-b]pyridazine-3-carboxamide] yielded a CC50 in “Cell cytotoxicity (CC50)” of more than 25 µM. Further, a half-maximal response with RSV A2 (EC50) required 0.042 µM.

In “Cell cytotoxicity (CC50)”, `O=C(N[C@H]1N=C(c2ccccc2)c2ccccc2NC1=O)c1c(-c2ccccc2F)nn2ccc(N3CCCC3)nc12` [Example 41, 2-(2-Fluorophenyl)-N-[(3S)-2-oxo-5-phenyl-1,3-dihydro-1,4-benzodiazepin-3-yl]-5-pyrrolidin-1-ylpyrazolo[1,5-a]pyrimidine-3-carboxamide] returned a CC50 of more than 25 µM. The half-maximal effective concentration (EC50) with RSV A2 was 0.08 µM.

`Cc1cncc(-c2nc3ccc(C)nn3c2C(=O)N[C@H]2N=C(c3ccccc3)c3cccc(F)c3NC2=O)c1` [Example 103, N-[(3S)-9-fluoro-2-oxo-5-phenyl-1,3-dihydro-1,4-benzodiazepin-3-yl]-6-methyl-2-(5-methylpyridin-3-yl)imidazo[1,2-b]pyridazine-3-carboxamide] came in with a CC50 in the data set “Cell cytotoxicity (CC50)” of more than 25 µM. In addition, a half-maximal effect in the data set on RSV A2 (EC50) was put at 0.082 µM.

In turn, `Cc1ccc2nc(-c3cncc(F)c3)c(C(=O)N[C@H]3N=C(c4ccccc4)c4cccc(F)c4NC3=O)n2n1` [Example 102, N-[(3S)-9-fluoro-2-oxo-5-phenyl-1,3-dihydro-1,4-benzodiazepin-3-yl]-2-(5-fluoropyridin-3-yl)-6-methylimidazo[1,2-b]pyridazine-3-carboxamide] registered a 50% cytotoxic concentration (CC50) in “Cell cytotoxicity (CC50)” of more than 19.2 µM. Moreover, the EC50 in the data set with RSV A2 was 0.105 µM.

`C[C@H]1COCCN1c1ccc(-c2nn3cccnc3c2C(=O)N[C@H]2N=C(c3ccccc3)c3ccccc3NC2=O)cn1` (single isomer, unassigned) [Example 124, 2-(6-[(3S*)-3-methylmorpholin-4-yl]pyridin-3-yl)-N-[(3S)-2-oxo-5-phenyl-2,3-dihydro-1H-1,4-benzodiazepin-3-yl]pyrazolo[1,5-a]pyrimidine-3-carboxamide] registered a CC50 in the data set “Cell cytotoxicity (CC50)” of more than 25 µM. In the data set on RSV A2, this compound displayed an EC50 of 0.083 µM.

In turn, `COc1ccc(F)c(-c2nn3cccnc3c2C(=O)N[C@H]2N=C(c3ccccc3)c3cccc(F)c3NC2=O)c1` [Example 8, 2-(2-Fluoro-5-methoxyphenyl)-N-[(3S)-9-fluoro-2-oxo-5-phenyl-1,3-dihydro-1,4-benzodiazepin-3-yl]pyrazolo[1,5-a]pyrimidine-3-carboxamide] registered a cytotoxic concentration (CC50) in the data set “Cell cytotoxicity (CC50)” of more than 25 µM. For the same compound, in the data set on RSV A2, a half-maximal response (EC50) required 0.054 µM.

In the case of `Cc1ccc2nc(-c3cncc(C(F)(F)F)c3)c(C(=O)N[C@H]3N=C(c4ccccc4)c4cccc(F)c4NC3=O)n2n1` [Example 47, N-[(3S)-9-fluoro-2-oxo-5-phenyl-1,3-dihydro-1,4-benzodiazepin-3-yl]-6-methyl-2-[5-(trifluoromethyl)pyridin-3-yl]imidazo[1,2-b]pyridazine-3-carboxamide], in the data set “Cell cytotoxicity (CC50)”, the CC50 was more than 25 µM. For the same compound, the concentration giving a half-maximal response (EC50) in the data set with RSV A2 was 0.101 µM.

In turn, `CC(C)Nc1ccc(-c2nn3cccnc3c2C(=O)N[C@H]2N=C(c3ccccc3)c3ccccc3NC2=O)cn1` [Example 73, N-[(3S)-2-oxo-5-phenyl-1,3-dihydro-1,4-benzodiazepin-3-yl]-2-[6-(propan-2-ylamino)pyridin-3-yl]pyrazolo[1,5-a]pyrimidine-3-carboxamide] came in with a CC50 in the data set “Cell cytotoxicity (CC50)” of more than 25 µM. In the data set on RSV A2, this compound displayed a concentration for a half-maximal effect (EC50) of 0.045 µM.

Consider `Cc1ccc(F)c(-c2nn3cccnc3c2C(=O)N[C@H]2N=C(c3ccccc3)c3ccccc3NC2=O)c1` [Example 25, 2-(2-Fluoro-5-methylphenyl)-N-[(3S)-2-oxo-5-phenyl-1,3-dihydro-1,4-benzodiazepin-3-yl]pyrazolo[1,5-a]pyrimidine-3-carboxamide], for which the midpoint of cytotoxicity in the data set “Cell cytotoxicity (CC50)”, the CC50, lay at 15.4 µM. In the data set with RSV A2, this compound had a concentration for a half-maximal effect (EC50) of 0.116 µM.
